US20080200337A1, “Mixed herbicide compositions for paddy field” (Bayer CropScience, priority 2007, published 2008)

Tests used:
Assay type in all cases: in vivo
[1] = system: annual broad-leaved weeds; experiment: Weed control, flooded paddy field, treatment at 1 leaf-stage (Test Example 1); conditions: after 4 weeks
Procedure: (§1) Carrier: 5 parts by weight of acetone
(§2) Surfactant: one part by weight of benzyloxy polyglycol ether.
(§3) Above described carrier and surfactant are mixed with one part by weight of the active compound ((a) ingredient and (b) ingredient) and the resulting preparation is then diluted with water to obtain given amount of the test drug (the formulation).
(§4) In a greenhouse, seeds or tubers of Echinochloa, Scirpus juncoides Roxburgh, Monochoria vaginalis Presl, annual broad-leaved weeds (Lindernia procumbens Philcox, Lindernia dubia L. Penn., Rotala indica Koehne, Elatine triandra Schk, Ammannia multiflora Roxb.), Cyperus serotinus Rottboel and Sagittaria pygmaea Miq. were inoculated in a 500 cm^2 pot filled with paddy field soil. After 2 leaf-stage of rice were transplanted, water was poured to a depth of about 3 cm. At 1.0 leaf-stage of Echinochloa oryzicola Vasing, a prescribed, diluted solution of the formulation of each active compound and each herbicidal compound in the table was separately or simultaneously applied to the surface of water. After the treatment, the water depth of 3 cm was maintained, and herbicidal effect was examined after 4 weeks. In the assessment of the herbicidal effect and the phytotoxicity, 100% refers to complete death and 0% refers to no effect or no phytotoxicity.

[2] = system: Monochoria vaginalis Presl; experiment: as above; conditions: after 4 weeks
Procedure: as §1, §2, §3, §4

[3] = system: Scirpus juncoides Roxburgh; experiment: as above; conditions: after 4 weeks
Procedure: as §1, §2, §3, §4

[4] = system: Cyperus serotinus Rottboel; experiment: as above; conditions: after 4 weeks
Procedure: as §1, §2, §3, §4

Sagittaria pygmaea Miq. [5] = experiment: as above; conditions: after 4 weeks
Procedure: as §1, §2, §3, §4

Echinochloa [6] = experiment: as above; conditions: after 4 weeks
Procedure: as §1, §2, §3, §4

transplanted rice [7] = experiment: Phytotoxicity, flooded paddy field, treatment at 3 leaf-stage (Test Example 2); conditions: treatment at 3 leaf-stage, after 4 weeks
Procedure: as §1, §2, §3
as §4, with “Echinochloa, Cyperus difformis L.,” for “Echinochloa,”, “3.0” for “1.0”, “Echinochloa,” for “Echinochloa oryzicola Vasing,”

[8] = system: annual broad-leaved weeds; experiment: Weed control, flooded paddy field, treatment at 3 leaf-stage (Test Example 2); conditions: after 4 weeks
Procedure: as §1, §2, §3
as §4, with “Echinochloa, Cyperus difformis L.,” for “Echinochloa,”, “3.0” for “1.0”, “Echinochloa,” for “Echinochloa oryzicola Vasing,”

[9] = system: Monochoria vaginalis Presl; experiment: as above; conditions: after 4 weeks
Procedure: as §1, §2, §3
as §4, with “Echinochloa, Cyperus difformis L.,” for “Echinochloa,”, “3.0” for “1.0”, “Echinochloa,” for “Echinochloa oryzicola Vasing,”

[10] = system: Scirpus juncoides Roxburgh; experiment: as above; conditions: after 4 weeks
Procedure: as §1, §2, §3
as §4, with “Echinochloa, Cyperus difformis L.,” for “Echinochloa,”, “3.0” for “1.0”, “Echinochloa,” for “Echinochloa oryzicola Vasing,”

[11] = system: Cyperus serotinus Rottboel; experiment: as above; conditions: after 4 weeks
Procedure: as §1, §2, §3
as §4, with “Echinochloa, Cyperus difformis L.,” for “Echinochloa,”, “3.0” for “1.0”, “Echinochloa,” for “Echinochloa oryzicola Vasing,”

Sagittaria pygmaea Miq. [12] = experiment: as above; conditions: after 4 weeks
Procedure: as §1, §2, §3
as §4, with “Echinochloa, Cyperus difformis L.,” for “Echinochloa,”, “3.0” for “1.0”, “Echinochloa,” for “Echinochloa oryzicola Vasing,”

Echinochloa [13] = experiment: as above; conditions: after 4 weeks
Procedure: as §1, §2, §3
as §4, with “Echinochloa, Cyperus difformis L.,” for “Echinochloa,”, “3.0” for “1.0”, “Echinochloa,” for “Echinochloa oryzicola Vasing,”

Echinochloa cruss-galli = experiment: Weed control by spray treatment at 1.5 to 3.0 leaf-stage (Test Example 3); conditions: spray at 1.5 to 3.0 leaf-stage, 4 weeks later
Procedure: as §1, §2, §3
(§5) In a greenhouse, seeds of rice (var.: Nipponbare and RD23) and weeds (Echinochloa oryzicola Vasing, Echinochloa cruss-galli, Leptochloa chinensis, Cyperus difformis L., Cyperus iria L., annual broad-leaved weeds (Monochoria vaginalis Presl, Lindernia procumbens Philcox, Lindernia dubia L. Penn., Rotala indica Koehne, Elatine triandra Schk, Ammannia multiflora Roxb. and the like)) were sown in a 500 cm^2 pot filled with paddy field soil and covered with soil. Water was added to the pot (a depth of 0 cm) to be a wet condition, and each test plant was grown in the greenhouse to 1.5 to 3.0 leaf-stage, after then a prescribed, diluted solution of the formulation of each active compound and each herbicidal compound in the table were separately or simultaneously sprayed over the pots with plants. At 3 days after the treatment, the water depth of 3 cm was maintained, and 4 weeks later, herbicidal effect was then examined. In the assessment of the herbicidal effect and the phytotoxicity, 100% refers to complete death and 0% refers to no effect or no phytotoxicity.

Cyperus iria L. = experiment: as above; conditions: spray at 1.5 to 3.0 leaf-stage, 4 weeks later
Procedure: as §1, §2, §3, §5

[14] = system: annual broad-leaved weeds; experiment: as above; conditions: spray at 1.5 to 3.0 leaf-stage, 4 weeks later
Procedure: as §1, §2, §3, §5

[15] = system: Monochoria vaginalis Presl; experiment: as above; conditions: spray at 1.5 to 3.0 leaf-stage, 4 weeks later
Procedure: as §1, §2, §3, §5

Leptochloa chinensis = experiment: as above; conditions: spray at 1.5 to 3.0 leaf-stage, 4 weeks later
Procedure: as §1, §2, §3, §5

Cyperus difformis L. = experiment: as above; conditions: spray at 1.5 to 3.0 leaf-stage, 4 weeks later
Procedure: as §1, §2, §3, §5

[16] = system: Echinochloa oryzicola Vasing; experiment: as above; conditions: spray at 1.5 to 3.0 leaf-stage, 4 weeks later
Procedure: as §1, §2, §3, §5

[17] = system: submerged direct sown paddy (Nipponbare); experiment: Phytotoxicity, spray treatment at 1.5 to 3.0 leaf-stage (Test Example 3); conditions: spray at 1.5 to 3.0 leaf-stage, 4 weeks later
Procedure: as §1, §2, §3, §5

[18] = system: submerged direct sown paddy (RD-23); experiment: as above; conditions: spray at 1.5 to 3.0 leaf-stage, 4 weeks later, RD-23
Procedure: as §1, §2, §3, §5

transplanted rice [19] = experiment: Phytotoxicity, flooded paddy field, treatment at 1 leaf-stage (Test Example 1); conditions: treatment at 1 leaf-stage, after 4 weeks
Procedure: as §1, §2, §3, §4

**Q.** How did the “Herbicidal effect (%) BBBBB” value ([1]; 30 g ai/ha) turn out when `COc1nc(OC)nc(C(=O)c2cccc(F)c2N(C)S(=O)(=O)C(F)F)n1` [(a-1)] was run?
**A.** Its value is 25%.

**Q.** What about the “Herbicidal effect (%) BBBBB” value ([1]; 50 g ai/ha) of the same compound?
**A.** Its value is 45%.

**Q.** What about the “Herbicidal effect (%) MOOVP” value ([2]; 30 g ai/ha) of the same compound?
**A.** The value was 25%.

**Q.** What about the “Herbicidal effect (%) MOOVP” value ([2]; 50 g ai/ha) of the same compound?
**A.** The value was 47%.

**Q.** What about the “Herbicidal effect (%) SCPSS” value ([3]; 30 g ai/ha) of the same compound?
**A.** Its value is 85%.

**Q.** And the “Herbicidal effect (%) SCPSS” value ([3]; 50 g ai/ha)?
**A.** Its value is 87%.

**Q.** And the “Herbicidal effect (%) CYPSEE” value ([4]; 30 g ai/ha)?
**A.** The value was 90%.

**Q.** And the “Herbicidal effect (%) CYPSEE” value ([4]; 50 g ai/ha)?
**A.** The value was 93%.

**Q.** What about the “Herbicidal effect (%) SAGPY” value (Sagittaria pygmaea Miq. [5]; 30 g ai/ha) of the same compound?
**A.** The value was 70%.

**Q.** What about the “Herbicidal effect (%) SAGPY” value (Sagittaria pygmaea Miq. [5]; 50 g ai/ha) of the same compound?
**A.** The value was 90%.

**Q.** What about the “Herbicidal effect (%) ECHSS” value (Echinochloa [6]; 30 g ai/ha) of the same compound?
**A.** The value was 93%.

**Q.** What about the “Herbicidal effect (%) ECHSS” value (Echinochloa [6]; 50 g ai/ha) of the same compound?
**A.** The value was 95%.

**Q.** And the “Phytotoxicity (%) ORYSP” value (transplanted rice [7]; 30 g ai/ha)?
**A.** The value was 0%.

**Q.** And the “Phytotoxicity (%) ORYSP” value (transplanted rice [7]; 50 g ai/ha)?
**A.** The value was 0%.

**Q.** What about the “Herbicidal effect (%) BBBBB” value ([8]; 30 g ai/ha) of the same compound?
**A.** Its value is 21%.

**Q.** And the “Herbicidal effect (%) BBBBB” value ([8]; 50 g ai/ha)?
**A.** The value was 30%.

**Q.** And the “Herbicidal effect (%) MOOVP” value ([9]; 30 g ai/ha)?
**A.** The value was 20%.

**Q.** And the “Herbicidal effect (%) MOOVP” value ([9]; 50 g ai/ha)?
**A.** The value was 45%.

**Q.** What about the “Herbicidal effect (%) SCPSS” value ([10]; 30 g ai/ha) of the same compound?
**A.** Its value is 80%.

**Q.** And the “Herbicidal effect (%) SCPSS” value ([10]; 50 g ai/ha)?
**A.** Its value is 83%.

**Q.** What about the “Herbicidal effect (%) CYPSEE” value ([11]; 30 g ai/ha) of the same compound?
**A.** Its value is 90%.

**Q.** And the “Herbicidal effect (%) CYPSEE” value ([11]; 50 g ai/ha)?
**A.** Its value is 90%.

**Q.** What about the “Herbicidal effect (%) SAGPY” value (Sagittaria pygmaea Miq. [12]; 30 g ai/ha) of the same compound?
**A.** Its value is 70%.

**Q.** What about the “Herbicidal effect (%) SAGPY” value (Sagittaria pygmaea Miq. [12]; 50 g ai/ha) of the same compound?
**A.** Its value is 73%.

**Q.** What about the “Herbicidal effect (%) ECHSS” value (Echinochloa [13]; 30 g ai/ha) of the same compound?
**A.** Its value is 90%.

**Q.** What about the “Herbicidal effect (%) ECHSS” value (Echinochloa [13]; 50 g ai/ha) of the same compound?
**A.** Its value is 90%.

**Q.** What about the “Herbicidal effect (%) ECHCG” value (Echinochloa cruss-galli; 30 g ai/ha) of the same compound?
**A.** Its value is 100%.

**Q.** And the “Herbicidal effect (%) ECHCG” value (Echinochloa cruss-galli; 50 g ai/ha)?
**A.** Its value is 100%.

**Q.** And the “Herbicidal effect (%) CYPIR” value (Cyperus iria L.; 30 g ai/ha)?
**A.** The value was 100%.

**Q.** And the “Herbicidal effect (%) CYPIR” value (Cyperus iria L.; 50 g ai/ha)?
**A.** The value was 100%.

**Q.** And the “Herbicidal effect (%) BBBBB” value ([14]; 30 g ai/ha)?
**A.** Its value is 70%.

**Q.** And the “Herbicidal effect (%) BBBBB” value ([14]; 50 g ai/ha)?
**A.** The value was 70%.

**Q.** And the “Herbicidal effect (%) MOOVP” value ([15]; 30 g ai/ha)?
**A.** The value was 85%.

**Q.** And the “Herbicidal effect (%) MOOVP” value ([15]; 50 g ai/ha)?
**A.** Its value is 85%.

**Q.** And the “Herbicidal effect (%) LEFCH” value (Leptochloa chinensis; 30 g ai/ha)?
**A.** The value was 75%.

**Q.** What about the “Herbicidal effect (%) LEFCH” value (Leptochloa chinensis; 50 g ai/ha) of the same compound?
**A.** Its value is 90%.

**Q.** What about the “Herbicidal effect (%) CYPDI” value (Cyperus difformis L.; 30 g ai/ha) of the same compound?
**A.** The value was 100%.

**Q.** What about the “Herbicidal effect (%) CYPDI” value (Cyperus difformis L.; 50 g ai/ha) of the same compound?
**A.** The value was 100%.

**Q.** And the “Herbicidal effect (%) ECHOR” value ([16]; 30 g ai/ha)?
**A.** The value was 100%.

**Q.** What about the “Herbicidal effect (%) ECHOR” value ([16]; 50 g ai/ha) of the same compound?
**A.** Its value is 100%.

**Q.** What about the “Phytotoxicity (%) ORYSW*^1” value ([17]; 30 g ai/ha) of the same compound?
**A.** Its value is 5%.

**Q.** And the “Phytotoxicity (%) ORYSW*^1” value ([17]; 50 g ai/ha)?
**A.** The value was 10%.

**Q.** And the “Phytotoxicity (%) ORYSW*^2” value ([18]; 30 g ai/ha)?
**A.** Its value is 5%.

**Q.** What about the “Phytotoxicity (%) ORYSW*^2” value ([18]; 50 g ai/ha) of the same compound?
**A.** The value was 10%.

**Q.** And the “Phytotoxicity (%) ORYSP” value (transplanted rice [19]; 30 g ai/ha)?
**A.** The value was 0%.

**Q.** What about the “Phytotoxicity (%) ORYSP” value (transplanted rice [19]; 50 g ai/ha) of the same compound?
**A.** Its value is 0%.
